Results published in patent publication US12103919B2, “3-(5-oxy)-1-oxoisoindolin-2-yl)piperidine-2,6-dione derivatives and uses thereof” (NOVARTIS AG, priority 2021, dated 2024).

Molecular target: T1, SALL4 (Homo sapiens, UniProt Q96SW2+Q9UJQ4)
T1 construct: expressed in transfected cells; host or cells: GripTite 293 MSR cells (293GT), ThermoFisher Scientific, stably transfected by electroporation, blasticidin-selected clones
Assay: Quantification of SALL4 protein levels in HiBiT tag fusion protein assay
Assay type: cell-based
Protocol: The HiBiT system from Promega was used to develop high-throughput and quantitative assays to measure changes in SALL4 protein levels in response to compounds. The HiBiT tag was derived from a split Nanoluciferase and has the following protein sequence: […] (SEQ ID No: 1). The complementary fragment of Nanoluciferase (known as LgBiT, from Promega), was added to the HiBiT tag to form an active Nanoluciferase enzyme whose activity can be precisely measured. In this way, the levels of a fusion protein with the HiBiT tag can be quantified in cell lysates.
DNA constructs, based on the Invitrogen pLenti6.2/V5 DEST backbone, were constructed with the HiBiT tag upstream of SALL4 and expressed the fusion protein from a CMV promotor.
To ensure moderate and consistent expression of the HiBiT-SALL4 fusion protein across all cells in the population, stable cell lines were derived from clones. GripTite 293 MSR cells (293GT) from ThermoFisher Scientific (Catalog number: CRL-R79507), were stably transfected with prepared constructs via electroporation. Following recovery, cells were selected by 10 ug/mL blasticidin in culture media.
The levels of HiBiT-SALL4 tagged fusion proteins in compound-treated cell lines were measured as follows:
On day 1, cells were diluted to 1.0×10^6 cells/ml in normal growth medium. 20 μL of cell suspension were plated in each well of a solid white 384-well plate. Plates were incubated overnight in a 37° C. and 5% CO2 humidified tissue culture incubator.
On day 2, serial dilutions of compounds were made in 384-well plates. Compound plates were set up with DMSO in columns 1, 2, 23, 24, and 10-point compound dilution series in column 3-12 and column 13-22. 10 mM stock solution of compound were placed into column 3 or 13 and a 1:5 serial dilution was carried out until there was a 10-point dilution series per compound. 100 nL of diluted compounds were transferred into the plated cells by Echo® (Labcyte) acoustic transfer. The highest concentration of compound was 50 μM. Plates were incubated overnight (18 hours) in a 37° C. and 5% CO2 humidified tissue culture incubator.
On day 3, plates were removed from the incubator and allowed to equilibrate at room temperature for 60 minutes. HiBiT substrate (Nano-Glo® HiBit Lytic Detection System, Promega Catalogue number: N3050) was added as described by the manufacturers protocols. Plates were incubated at room temperature for 30 minutes and luminescence was read using an EnVision® reader (PerkinElmer®). Data was analyzed and visualized using the Spotfire® software package.
SALL4 Amax reflects the DMSO-normalized, curve-fitted percentage of SALL4-HiBiT remaining at 50 uM. It was calculated by normalizing DMSO controls to 100%, parametric curve fitting of the dose response data (10-point, 5-fold), followed by calculation of response at 50 uM using the fitted equation.
This assay produced a range of SALL4 AC50 and Amax values over several repeat runs due to normal variations in the assay. For a comparison to the compounds described in PCT/IB2020/062070, the arithmatic mean values are reported over the number of repeats specified. […] The compounds of the present disclosure are therefore expected to have improved toxicological properties (Matyskiela, M. E., Couto, S., Zheng, X. et al. SALL4 mediates teratogenicity as a thalidomide-dependent cereblon substrate. Nat Chem Biol 14, 981-987 (2018); Donovan, K. A. et al. Thalidomide promotes degradation of SALL4, a transcription factor Implicated in Duane Radial Ray syndrome. eLife 2018; 7:e38430).

T1 sequence (Q9UJQ4 whole entry): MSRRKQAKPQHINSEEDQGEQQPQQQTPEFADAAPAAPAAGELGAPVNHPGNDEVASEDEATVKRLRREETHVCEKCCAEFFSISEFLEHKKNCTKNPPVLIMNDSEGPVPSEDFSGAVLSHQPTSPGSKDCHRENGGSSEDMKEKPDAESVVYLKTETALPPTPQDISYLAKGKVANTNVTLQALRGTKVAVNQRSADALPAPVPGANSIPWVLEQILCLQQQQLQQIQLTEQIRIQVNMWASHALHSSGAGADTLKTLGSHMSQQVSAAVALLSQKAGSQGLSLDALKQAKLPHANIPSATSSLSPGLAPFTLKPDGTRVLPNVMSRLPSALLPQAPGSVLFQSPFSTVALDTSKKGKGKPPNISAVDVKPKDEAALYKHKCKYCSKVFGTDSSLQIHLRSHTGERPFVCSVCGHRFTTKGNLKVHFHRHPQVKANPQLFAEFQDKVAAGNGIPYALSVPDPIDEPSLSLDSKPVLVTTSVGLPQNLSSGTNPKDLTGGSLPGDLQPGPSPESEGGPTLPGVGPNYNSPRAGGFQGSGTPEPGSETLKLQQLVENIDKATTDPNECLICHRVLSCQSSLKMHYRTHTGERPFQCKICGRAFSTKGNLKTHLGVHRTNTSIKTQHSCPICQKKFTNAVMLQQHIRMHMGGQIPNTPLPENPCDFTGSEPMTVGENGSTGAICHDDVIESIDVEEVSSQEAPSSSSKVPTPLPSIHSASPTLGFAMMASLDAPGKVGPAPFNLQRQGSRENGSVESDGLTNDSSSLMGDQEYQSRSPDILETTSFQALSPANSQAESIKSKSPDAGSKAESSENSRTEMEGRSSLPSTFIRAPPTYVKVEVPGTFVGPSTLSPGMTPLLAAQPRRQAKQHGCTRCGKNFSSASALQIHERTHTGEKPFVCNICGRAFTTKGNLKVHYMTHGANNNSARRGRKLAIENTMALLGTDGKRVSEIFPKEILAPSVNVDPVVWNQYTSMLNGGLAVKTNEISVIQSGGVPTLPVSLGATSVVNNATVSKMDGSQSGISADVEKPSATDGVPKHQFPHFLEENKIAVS
T1 sequence (Q96SW2 whole entry): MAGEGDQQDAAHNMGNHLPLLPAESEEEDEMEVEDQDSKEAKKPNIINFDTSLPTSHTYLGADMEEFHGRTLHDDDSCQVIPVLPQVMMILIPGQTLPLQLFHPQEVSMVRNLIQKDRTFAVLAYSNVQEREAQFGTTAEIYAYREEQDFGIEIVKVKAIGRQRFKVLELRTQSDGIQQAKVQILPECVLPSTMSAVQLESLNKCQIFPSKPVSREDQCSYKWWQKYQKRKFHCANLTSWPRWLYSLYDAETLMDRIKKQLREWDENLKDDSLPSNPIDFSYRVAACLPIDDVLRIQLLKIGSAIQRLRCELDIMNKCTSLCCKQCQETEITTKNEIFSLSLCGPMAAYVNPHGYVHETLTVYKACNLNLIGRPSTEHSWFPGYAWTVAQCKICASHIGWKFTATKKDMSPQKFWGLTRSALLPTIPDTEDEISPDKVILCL
T1 sequence (Q16531 whole entry partner): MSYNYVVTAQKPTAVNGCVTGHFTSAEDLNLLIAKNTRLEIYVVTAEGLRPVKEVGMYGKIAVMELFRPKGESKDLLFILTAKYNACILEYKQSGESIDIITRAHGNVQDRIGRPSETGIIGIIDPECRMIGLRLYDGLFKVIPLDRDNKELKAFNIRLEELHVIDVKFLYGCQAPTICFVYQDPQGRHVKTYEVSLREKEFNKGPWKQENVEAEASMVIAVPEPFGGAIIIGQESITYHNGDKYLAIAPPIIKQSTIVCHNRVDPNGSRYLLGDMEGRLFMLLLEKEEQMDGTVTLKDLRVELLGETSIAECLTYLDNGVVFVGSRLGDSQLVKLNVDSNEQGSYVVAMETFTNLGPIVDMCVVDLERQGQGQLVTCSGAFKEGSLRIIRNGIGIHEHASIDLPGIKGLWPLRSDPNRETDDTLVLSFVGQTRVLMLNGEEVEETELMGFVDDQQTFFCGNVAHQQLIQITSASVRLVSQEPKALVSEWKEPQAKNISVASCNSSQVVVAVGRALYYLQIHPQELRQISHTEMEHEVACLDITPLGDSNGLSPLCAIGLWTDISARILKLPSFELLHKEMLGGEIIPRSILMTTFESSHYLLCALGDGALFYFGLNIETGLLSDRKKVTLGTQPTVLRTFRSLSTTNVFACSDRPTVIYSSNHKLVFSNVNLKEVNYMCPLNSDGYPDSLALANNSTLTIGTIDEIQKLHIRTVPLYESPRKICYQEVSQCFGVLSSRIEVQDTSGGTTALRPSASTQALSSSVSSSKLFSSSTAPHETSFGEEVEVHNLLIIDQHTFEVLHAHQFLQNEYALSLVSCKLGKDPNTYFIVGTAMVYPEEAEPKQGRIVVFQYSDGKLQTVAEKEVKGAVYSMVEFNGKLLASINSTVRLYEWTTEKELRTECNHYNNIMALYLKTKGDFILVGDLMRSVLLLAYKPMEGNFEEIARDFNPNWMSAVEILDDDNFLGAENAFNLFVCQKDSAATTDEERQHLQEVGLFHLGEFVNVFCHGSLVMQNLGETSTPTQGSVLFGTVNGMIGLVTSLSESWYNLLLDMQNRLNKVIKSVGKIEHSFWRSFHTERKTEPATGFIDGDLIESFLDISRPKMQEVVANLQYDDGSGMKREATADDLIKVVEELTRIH

## CCN1CCC[C@@H](Oc2ccc3c(c2)CN(C2CCC(=O)NC2=O)C3=O)C1 (mixture of isomers) [Example 1, 3-(5-(((R)-1-ethylpiperidin-3-yl)oxy)-1-oxoisoindolin-2-yl)piperidine-2,6-dione]
DMSO-normalized, curve-fitted percentage of SALL4-HiBiT remaining at 50 uM, mean over repeats
  SALL4 Amax: 72.21%
Arithmatic mean over number of repeats, 18 hours, top 50 μM, read-out: SALL4 AC50
  DC50: 49 nM
